Source: US20220023269A1, “Methods Of Treating Diabetes In Severe Insulin-Resistant Diabetic Subjects” (Balticgruppen Bio AB, priority 2018, published 2022)

Key:
[1] = target: T1, PP2C-mediated dephosphorylation of p-T172 of human recombinant AMPKα, -β, and -γ trimers (Homo sapiens, UniProt P54619+P54646+Q9Y478); assay: AMPK in vitro de-phosphorylation assay; format: biochemical
T1 construct: purchased Life Technologies (AMPK trimer); Abcam (PP2Ca) PV4674 (Lot 1261361B); ab51205-100 (Lot GR54133-5)
Procedure: (§1) AMPKα2/β1/γ1 trimer (Life Technologies #PV4674, Lot 1261361B) (1 ng/μl) was incubated with 10 μM test material, 20 μM test material or 150 μM ADP (Sigma #A2754) +/−1 mM ATP (Sigma #A1852-1VL) in buffer (40 mM Hepes, 0.5 mM DTT, 0.2 mg/ml Gelatin (Sigma #G7041) and 0.4% DMSO), +/−PP2Ca (0.25-0.75 ng/μl) (Abcam ab51205-100; Lot GR54133-5) and 5 mM MnCl2 (total volume 20 μl). AMPKα2/β1/γ1+/−ATP was preincubated with the test material and ADP for 2 minutes at 30° C. before addition of PP2C/MnCl2 to start the dephosphorylation reaction which continued for 10-15 minutes at 30° C. Reactions were terminated by the addition of 0.17% BSA, 13 mM EDTA, 1.3×XT Sample buffer and 0.67% β-Mercaptoethanol in PBS. Samples were placed on ice, 5 minutes, heated at 100° C. for 5 minutes and chilled before run on a western gel. All steps were performed in high quality low-protein-binding eppendorf tubes. In a separate experiment 10 μM test material, 20 μM test material, 150 μM ADP alone or the combination of 10 μM test material+150 μM ADP and 20 μM test material+150 μM ADP was incubated with 1 ng/μl of AMPKα2/β1/γ1 or AMPKα1/β1/γ1 (Life Technologies #PV4672) trimer in buffer (40 mM Hepes, 0.5 mM DTT, 0.2 mg/ml gelatin and 0.4% DMSO)+/−0.25-0.5 ng/μl PP2Ca and 5 mM MnCl2 or 5 mM MgCl2. AMPK was sequentially preincubated with the test material and ADP or the combination for 2 minutes at 30° C. before sequential addition of PP2C/MnCl2 or PP2C/MgCl2 to start the dephosphorylation reaction which continued for 5-15 minutes at 30° C. The reaction was thereafter terminated and analysed as above.

[2] = test system: PP2C-mediated dephosphorylation of p-T172 of human recombinant AMPKα, -β, and -γ trimers; assay: AMPK in vitro de-phosphorylation assay; format: biochemical; conditions: with 150 μM ADP
Procedure: as §1

PP2Ca = target: T2, PP2Ca (Homo sapiens, UniProt P35813); assay: PP2C phosphatase activity assay; format: biochemical; conditions: 5, 10 or 20 μM
T2 construct: purchased Abcam ab51205
Procedure: 3 ng/μl PP2Ca (Abcam ab51205) and 5, 10 or 20 μM test material in buffer (50 mM Tris-HCL pH 7.5, 0.1 mM EDTA, 0.5 mM DTT, 5 mM MgCl2) was used in the Sensolyte FDP protein phosphatase assay kit (Anaspec #71100) according to the manufacturer's instructions to measure the activity of PP2Ca. The fluorescence intensity was measured in a Bio Tek Synergy H4 multi-mode microplate reader.

hIAPPtg mice = assay: Diet switch in hIAPPtg mice: HFD 9 w then test material-HFD (0.8 mg/g) 7 w; format: in vivo
Procedure: Food intake was measured weekly by giving each cage 200 g pellet. After one week, the amount of pellets consumed were calculated and adjusted according to the number of animals/cage. Body weight was measured weekly. Body composition was assessed using EchoMRI.
The potent effect of the test material on established diabetes and obesity in hIAPPtg mice on HFD formulated with 2 mg/g test material leaves open the possibility that the beneficial metabolic effects (FIG. 4, F-H) observed in these mice are secondary to the effects on weight and body fat. To address this issue, we therefore performed diet switch experiments on hIAPPtg mice using a lower test material-HFD concentration, where mice were fed HFD for 9 w and then either continued on HFD or switched to test material-HFD (0.8 mg/g) for 7 w.

INS-1E cells = assay: Autophagic flux assay; format: cell-based; conditions: 5 μM, 24 h, ± 100 nM Bafilomycin A1
Procedure: INS-1E cells were incubated for 24 h with or without 5 μM test material in the presence or absence of 100 nM Bafilomycin A1 (InvivoGen #tlrl-baf1) during the last 60 min of incubation. Levels of LC3II were determined by Western blot analysis and quantified.

Zucker rats = assay: Infrared thermal imaging; format: in vivo; conditions: 10 mg/kg/day, 12 days
Procedure: Skin temperature of non-sedated Zucker rats that had been treated with test material (10 mg/kg/day) or vehicle for 12 days was recorded with an infrared camera (FLIR ix series Extech IRC30, FLIR systems Inc.) and analysed with a specific software package (FLIR QuickReport version 1.2 SP2 (1.0.1.217). 9 rats per group was used and mean and maximum skin surface temperatures were measured for each animal 2 hours after final dose administration.

T1 sequence (P54646 whole entry): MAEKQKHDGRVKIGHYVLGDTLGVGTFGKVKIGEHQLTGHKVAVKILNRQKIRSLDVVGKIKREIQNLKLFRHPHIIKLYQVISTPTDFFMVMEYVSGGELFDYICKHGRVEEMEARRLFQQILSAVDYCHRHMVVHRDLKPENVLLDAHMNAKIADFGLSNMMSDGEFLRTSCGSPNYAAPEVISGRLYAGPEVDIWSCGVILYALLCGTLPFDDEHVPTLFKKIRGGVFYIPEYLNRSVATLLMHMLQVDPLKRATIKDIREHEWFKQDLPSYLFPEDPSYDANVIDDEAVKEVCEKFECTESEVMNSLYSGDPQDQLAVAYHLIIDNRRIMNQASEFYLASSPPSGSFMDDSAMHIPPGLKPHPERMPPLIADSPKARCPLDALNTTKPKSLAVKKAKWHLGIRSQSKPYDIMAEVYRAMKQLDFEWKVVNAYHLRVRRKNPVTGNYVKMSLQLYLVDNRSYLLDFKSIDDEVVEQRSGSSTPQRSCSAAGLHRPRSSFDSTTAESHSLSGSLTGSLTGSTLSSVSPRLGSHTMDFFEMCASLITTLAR
T1 sequence (Q9Y478 2-270): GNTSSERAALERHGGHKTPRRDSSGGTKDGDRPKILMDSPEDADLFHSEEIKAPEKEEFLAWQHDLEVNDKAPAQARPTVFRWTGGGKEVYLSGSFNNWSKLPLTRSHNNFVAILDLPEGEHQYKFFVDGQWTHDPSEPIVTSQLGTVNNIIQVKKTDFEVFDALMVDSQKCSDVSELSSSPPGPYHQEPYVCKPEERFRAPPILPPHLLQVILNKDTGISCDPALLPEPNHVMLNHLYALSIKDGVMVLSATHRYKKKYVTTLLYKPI
T1 sequence (P54619 whole entry): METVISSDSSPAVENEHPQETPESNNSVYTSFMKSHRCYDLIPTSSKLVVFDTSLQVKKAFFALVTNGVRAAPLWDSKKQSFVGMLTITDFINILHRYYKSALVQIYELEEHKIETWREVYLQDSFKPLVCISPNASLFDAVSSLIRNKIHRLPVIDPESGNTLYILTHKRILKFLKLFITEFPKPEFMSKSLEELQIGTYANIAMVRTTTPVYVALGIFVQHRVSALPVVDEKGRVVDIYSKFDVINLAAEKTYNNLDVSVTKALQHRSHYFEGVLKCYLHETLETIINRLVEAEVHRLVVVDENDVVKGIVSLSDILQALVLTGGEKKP
T2 sequence (P35813 whole entry): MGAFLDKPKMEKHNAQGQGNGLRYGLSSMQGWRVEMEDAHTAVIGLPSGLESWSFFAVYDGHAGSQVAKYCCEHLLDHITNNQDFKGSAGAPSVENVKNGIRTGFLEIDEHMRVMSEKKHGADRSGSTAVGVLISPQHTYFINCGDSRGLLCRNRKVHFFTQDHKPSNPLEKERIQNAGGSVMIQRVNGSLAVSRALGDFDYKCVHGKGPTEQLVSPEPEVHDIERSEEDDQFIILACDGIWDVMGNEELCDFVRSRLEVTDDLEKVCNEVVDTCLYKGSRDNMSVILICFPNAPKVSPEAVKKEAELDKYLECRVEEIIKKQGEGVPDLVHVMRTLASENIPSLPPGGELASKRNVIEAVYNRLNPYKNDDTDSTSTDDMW

PP2C-mediated dephosphorylation of p-T172 AMPK ([1]; absence of ATP): suppressed
dephosphorylation of pAMPK ([1]; presence of excess ATP (1.0 mM)): protected pAMPK from dephosphorylation
activity of PP2C (PP2Ca): without inhibiting the activity of PP2C
SMILES: O=C(Nc1nc(=O)n(Cc2ccc(Cl)cc2)s1)c1ccc(Cl)cc1 [test material, 4-chloro-N-[2-[(4-chlorophenyl)methyl]-3-oxo-1,2,4-thiadiazol-5-yl]benzamide]
effect together with ADP on pAMPK dephosphorylation [2]: acted in an additive manner with ADP
body fat (hIAPPtg mice; 0.8 mg/g for 7 w): did not provoke body weight or body fat loss
body weight (hIAPPtg mice; 0.8 mg/g for 7 w): did not provoke body weight or body fat loss
HOMA-IR (hIAPPtg mice; 0.8 mg/g, 6 w after the switch): significantly reduced
glucose levels (hIAPPtg mice; 0.8 mg/g, 6 w after the switch): significantly reduced
insulin levels (hIAPPtg mice; 0.8 mg/g, 6 w after the switch): significantly reduced
autophagic flux (LC3II) (INS-1E cells): enhanced autophagic flux
skin-surface temperature (Zucker rats): increased
